Laboratory results published in patent US10517889B2, “Modulators of SMAD7 expression” (Ionis Pharmaceuticals, Inc., priority 2017, dated 2019).
Strand notation (5' to 3'): a small letter for the sugar, then the base; units joined by * are phosphorothioate-linked, units joined directly phosphodiester-linked; [ ] holds rarer units or linkages, { } end groups; capitals alone tell only the bases. e = 2'-O-(2-methoxyethyl) (MOE); [5mC] = 5-methylcytosine; d = 2'-deoxy (DNA)

Tested on: human SMAD7 mRNA
Assay: Antisense inhibition of human SMAD7 mRNA expression in Hep3B cells by 5-10-5 MOE gapmers, single concentration, electroporation, RT-PCR (Example 1, Study 1 and 2)
Format: cell-based
How it was run: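 Hep3B cells (20,000/well) electroporated with 5-10-5 MOE gapmer at 5,000 nM or 15,000 nM for approximately 24 h. SMAD7 mRNA quantified by real-time PCR with primer probe set RTS5062 and normalized to RIBOGREEN total RNA. Values are percent inhibition relative to untreated controls.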

[1] = Study 2, electroporation with 15,000 nM antisense oligonucleotide, 5-10-5 MOE gapmers targeting SEQ ID NO: 1 and 2
[2] = electroporation, 15,000 nM antisense oligonucleotide (Study 2), 5-10-5 MOE gapmers targeting SEQ ID NO: 1 and 2
[3] = electroporation, 15,000 nM, approximately 24 hours, relative to untreated control cells, gapmers targeting SEQ ID NO: 1 and 2
[4] = electroporation with 15,000 nM antisense oligonucleotide (Study 2), 5-10-5 MOE gapmers targeting SEQ ID NO: 1 and 2

Substance	% inhibition of SMAD7 mRNA expression [1]	% inhibition of SMAD7 mRNA expression [2]	other results
771551 (antisense eA*eT*eT*eT*e[5mC]*dT*dG*d[5mC]*dT*dT*d[5mC]*d[5mC]*d[5mC]*d[5mC]*dT*e[5mC]*eT*eT*e[5mC]*e[5mC]) [compound 771551]	18%	–	–
771553 (antisense eT*eG*eG*eT*eG*d[5mC]*dT*dT*dG*dG*dA*dT*dT*dT*d[5mC]*eT*eG*e[5mC]*eT*eT) [compound 771553]	–	38%	–
771554 (antisense eT*eT*eT*eG*eG*dT*dG*dG*dT*dG*d[5mC]*dT*dT*dG*dG*eA*eT*eT*eT*e[5mC]) [compound 771554]	–	20%	–
771557 (antisense eA*eT*eG*eA*e[5mC]*d[5mC]*dG*d[5mC]*d[5mC]*d[5mC]*d[5mC]*d[5mC]*d[5mC]*dT*dT*e[5mC]*eA*eT*eA*e[5mC]) [compound 771557]	–	–	% inhibition of SMAD7 mRNA expression [3]: 19%
771558 (antisense eA*eA*eA*eT*eG*dA*dT*dG*dA*d[5mC]*d[5mC]*dG*d[5mC]*d[5mC]*d[5mC]*e[5mC]*e[5mC]*e[5mC]*eT*eT) [compound 771558]	7%	–	–
771559 (antisense eA*eA*eG*eT*eG*dA*dA*dA*dT*dG*dA*dT*dG*dA*d[5mC]*e[5mC]*eG*e[5mC]*e[5mC]*e[5mC]) [compound 771559]	49%	–	–
771560 (antisense e[5mC]*eT*eG*eA*e[5mC]*dA*dA*dG*dT*dG*dA*dA*dA*dT*dG*eA*eT*eG*eA*e[5mC]) [compound 771560]	–	0%	% Inhibition of SMAD7 mRNA [4]: 0%
771561 (antisense e[5mC]*eA*e[5mC]*eT*e[5mC]*d[5mC]*dT*dG*dA*d[5mC]*dA*dA*dG*dT*dG*eA*eA*eA*eT*eG) [compound 771561]	–	30%	–
771562 (antisense eA*e[5mC]*eA*e[5mC]*eA*d[5mC]*dA*d[5mC]*dT*d[5mC]*d[5mC]*dT*dG*dA*d[5mC]*eA*eA*eG*eT*eG) [compound 771562]	–	30%	–
771564 (antisense eG*e[5mC]*e[5mC]*eG*e[5mC]*dA*d[5mC]*dA*d[5mC]*dT*d[5mC]*dA*d[5mC]*dA*d[5mC]*eT*e[5mC]*eA*e[5mC]*eA) [compound 771564]	28%	–	–
771565 (antisense e[5mC]*eT*eG*e[5mC]*e[5mC]*dG*d[5mC]*dT*d[5mC]*d[5mC]*dT*dG*d[5mC]*dA*d[5mC]*eA*e[5mC]*eG*e[5mC]*eG) [compound 771565]	–	–	% inhibition of SMAD7 mRNA expression [3]: 55%
771566 (antisense eG*eA*e[5mC]*eA*e[5mC]*dA*dA*dA*dA*d[5mC]*dA*dA*dA*dG*dA*eG*e[5mC]*eA*e[5mC]*eG) [compound 771566]	28%	–	–
771567 (antisense eG*eG*eG*eA*e[5mC]*dA*dT*d[5mC]*d[5mC]*dA*dT*dA*dA*dG*dA*eG*eA*e[5mC]*eA*e[5mC]) [compound 771567]	39%	–	–
771568 (antisense e[5mC]*eT*eG*e[5mC]*eA*dA*dA*d[5mC]*d[5mC]*dT*d[5mC]*dT*d[5mC]*dT*dG*e[5mC]*eT*eG*eG*eG) [compound 771568]	–	17%	% Inhibition of SMAD7 mRNA [4]: 26%
771569 (antisense eG*eG*eA*e[5mC]*eT*dG*d[5mC]*dA*dA*dA*d[5mC]*d[5mC]*dT*d[5mC]*dT*e[5mC]*eT*eG*e[5mC]*eT) [compound 771569]	–	30%	–
771575 (antisense eA*e[5mC]*e[5mC]*eG*e[5mC]*dT*dT*dG*dG*dG*dA*d[5mC]*dT*dG*d[5mC]*eA*eA*eA*e[5mC]*e[5mC]) [compound 771575]	47%	–	–
771577 (antisense eT*eG*e[5mC]*e[5mC]*eT*d[5mC]*dT*dG*d[5mC]*d[5mC]*d[5mC]*d[5mC]*dA*d[5mC]*dT*eG*eA*eG*e[5mC]*eG) [compound 771577]	–	21%	–
771578 (antisense e[5mC]*eT*eG*e[5mC]*e[5mC]*dT*d[5mC]*dT*dG*d[5mC]*d[5mC]*d[5mC]*d[5mC]*dA*d[5mC]*eT*eG*eA*eG*e[5mC]) [compound 771578]	–	50%	–
771580 (antisense eA*eG*e[5mC]*eT*eT*dG*d[5mC]*d[5mC]*d[5mC]*dA*dG*dG*dT*dA*d[5mC]*eT*eG*e[5mC]*e[5mC]*eT) [compound 771580]	25%	–	–
771582 (antisense e[5mC]*eT*eG*eG*e[5mC]*dA*dG*d[5mC]*dT*dG*d[5mC]*dT*dG*dG*dG*eA*e[5mC]*e[5mC]*e[5mC]*e[5mC]) [compound 771582]	37%	–	–
771584 (antisense eA*eG*e[5mC]*e[5mC]*eG*dT*dG*d[5mC]*dT*d[5mC]*d[5mC]*dT*dG*dG*d[5mC]*eA*eG*e[5mC]*eT*eG) [compound 771584]	–	7%	% Inhibition of SMAD7 mRNA [4]: 26%
771585 (antisense eG*eA*eG*e[5mC]*e[5mC]*dG*dT*dG*d[5mC]*dT*d[5mC]*d[5mC]*dT*dG*dG*e[5mC]*eA*eG*e[5mC]*eT) [compound 771585]	–	49%	–

Substance	% inhibition of SMAD7 mRNA expression [1]	% inhibition of SMAD7 mRNA expression [2]	other results
771586 (antisense e[5mC]*e[5mC]*eT*eT*eG*dA*dT*dG*dA*dG*dG*dG*dA*dG*dA*eG*eG*eA*eG*eG) [compound 771586]	–	48%	–
771588 (antisense eA*eG*eG*e[5mC]*e[5mC]*d[5mC]*dG*dT*dG*dT*d[5mC]*d[5mC]*dT*dT*dG*eA*eT*eG*eA*eG) [compound 771588]	13%	–	–
771589 (antisense eT*eG*eG*eA*e[5mC]*dA*dG*dG*d[5mC]*d[5mC]*d[5mC]*dG*dT*dG*dT*e[5mC]*e[5mC]*eT*eT*eG) [compound 771589]	–	–	% inhibition of SMAD7 mRNA expression [3]: 51%
771590 (antisense eG*e[5mC]*e[5mC]*eT*eG*dT*dG*dG*dA*d[5mC]*dA*dG*dG*d[5mC]*d[5mC]*e[5mC]*eG*eT*eG*eT) [compound 771590]	14%	–	–
771591 (antisense e[5mC]*eA*eG*eA*eA*dG*d[5mC]*d[5mC]*dT*dG*dT*dG*dG*dA*d[5mC]*eA*eG*eG*e[5mC]*e[5mC]) [compound 771591]	50%	–	–
771592 (antisense e[5mC]*eT*eG*e[5mC]*eT*d[5mC]*dA*dG*dA*dA*dG*d[5mC]*d[5mC]*dT*dG*eT*eG*eG*eA*e[5mC]) [compound 771592]	–	0%	% Inhibition of SMAD7 mRNA [4]: 16%
771593 (antisense e[5mC]*eG*e[5mC]*eT*eG*d[5mC]*dT*d[5mC]*dA*dG*dA*dA*dG*d[5mC]*d[5mC]*eT*eG*eT*eG*eG) [compound 771593]	–	41%	–
771594 (antisense eG*eG*e[5mC]*e[5mC]*eA*d[5mC]*dT*dA*dG*d[5mC]*dA*dG*dG*d[5mC]*dT*e[5mC]*eG*e[5mC]*eT*eG) [compound 771594]	–	37%	–
771596 (antisense eG*eA*e[5mC]*eA*eA*dG*dG*dA*dT*dG*dA*dA*dA*dA*dT*eA*eA*eT*eT*eG) [compound 771596]	0%	–	–
771597 (antisense eG*eA*eA*eT*eA*dA*dG*dA*d[5mC]*dA*dA*dG*dG*dA*dT*eG*eA*eA*eA*eA) [compound 771597]	–	–	% inhibition of SMAD7 mRNA expression [3]: 0%
771598 (antisense eG*eA*eA*eG*eG*dG*dA*dA*dT*dA*dA*dG*dA*d[5mC]*dA*eA*eG*eG*eA*eT) [compound 771598]	34%	–	–
771599 (antisense eG*e[5mC]*eA*eG*eG*dA*dA*dG*dG*dG*dA*dA*dT*dA*dA*eG*eA*e[5mC]*eA*eA) [compound 771599]	39%	–	–
771600 (antisense eT*eG*eG*e[5mC]*e[5mC]*dA*dA*dA*dA*dA*dA*dG*dA*dA*dA*eG*eA*e[5mC]*eG*e[5mC]) [compound 771600]	–	0%	% Inhibition of SMAD7 mRNA [4]: 11%
771601 (antisense eG*eA*eT*eG*eG*d[5mC]*d[5mC]*dA*dA*dA*dA*dA*dA*dG*dA*eA*eA*eG*eA*e[5mC]) [compound 771601]	–	13%	–
771602 (antisense eG*eG*eA*eG*eA*dT*d[5mC]*d[5mC]*dA*dG*dG*dA*dG*d[5mC]*dA*eG*eA*eT*eG*eG) [compound 771602]	–	–	% inhibition of SMAD7 mRNA expression [4]: 39%
771604 (antisense e[5mC]*e[5mC]*eT*eT*eG*dG*dG*dA*dA*dG*d[5mC]*d[5mC]*d[5mC]*dA*dT*e[5mC]*eT*e[5mC]*eA*eG) [compound 771604]	12%	–	–
771605 (antisense eG*eG*e[5mC]*eT*eG*d[5mC]*d[5mC]*d[5mC]*d[5mC]*dG*dG*d[5mC]*dA*dG*d[5mC]*e[5mC]*e[5mC]*eT*eT*eG) [compound 771605]	–	–	% inhibition of SMAD7 mRNA expression [3]: 26%
771606 (antisense eG*eG*eG*e[5mC]*eT*dG*d[5mC]*d[5mC]*d[5mC]*d[5mC]*dG*dG*d[5mC]*dA*dG*e[5mC]*e[5mC]*e[5mC]*eT*eT) [compound 771606]	0%	–	–
771607 (antisense eG*eG*eT*eG*eA*dG*d[5mC]*dA*dA*dT*dA*d[5mC]*dT*dG*dT*eG*eA*eG*eG*eG) [compound 771607]	34%	–	–
771608 (antisense e[5mC]*eT*eG*eG*eG*dT*dG*dA*dG*d[5mC]*dA*dA*dT*dA*d[5mC]*eT*eG*eT*eG*eA) [compound 771608]	–	–	% Inhibition of SMAD7 mRNA [4]: 45%; % inhibition of SMAD7 mRNA expression [4]: 34%
771609 (antisense eA*eT*eG*eT*e[5mC]*dA*d[5mC]*d[5mC]*dA*dG*dG*dG*d[5mC]*dA*dG*eG*e[5mC]*eA*eG*eG) [compound 771609]	–	–	% inhibition of SMAD7 mRNA expression [4]: 47%
